Structures can show the parent of a compound that is named as a salt.
Columns and labels:
[1] = molecular target: T1, human alpha2C receptors (Homo sapiens, UniProt P18825); test: Determination of alpha2C antagonistic activity in vitro (FLIPR calcium assay, CHO cells); format: cell-based; conditions: for Kb: Kb calculated with the Cheng-Prusoff equation from IC50, adrenaline as agonist, CHO cells, human alpha2C, read-out: Alpha 2C Adrenaline Kb; for IC50: antagonism of adrenaline stimulation, CHO cells stably transfected with human alpha2C receptor and Gα16, intracellular calcium (FLIPR), read-out: Alpha 2C Adrenaline IC50
T1 construct: host or cells: CHO cells, cotransfected with pCEP-Gα16
T1 sequence (P18825 1-462): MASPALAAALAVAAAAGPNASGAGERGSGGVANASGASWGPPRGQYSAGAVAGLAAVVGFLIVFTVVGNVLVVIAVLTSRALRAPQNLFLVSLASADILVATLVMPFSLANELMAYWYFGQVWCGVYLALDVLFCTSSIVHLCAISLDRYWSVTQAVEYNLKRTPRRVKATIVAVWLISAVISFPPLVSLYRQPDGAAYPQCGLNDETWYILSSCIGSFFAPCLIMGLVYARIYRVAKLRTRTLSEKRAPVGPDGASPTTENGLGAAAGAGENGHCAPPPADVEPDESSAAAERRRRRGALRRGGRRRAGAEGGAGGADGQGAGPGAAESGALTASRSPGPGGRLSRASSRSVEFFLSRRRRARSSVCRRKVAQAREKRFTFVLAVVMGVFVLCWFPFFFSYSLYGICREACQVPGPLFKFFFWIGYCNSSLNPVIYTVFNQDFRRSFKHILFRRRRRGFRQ
Description: (§1) EXPERIMENT 1: Determination of alpha2A and alpha2C Antagonistic Activity In Vitro
(§2) Chinese hamster ovary (CHO) cells stably transfected with human alpha2A or alpha2C receptors (University of Turku, Finland) were cotransfected with the expression vector pCEP-Gα16 (Molecular Devices, CA, USA) were used in this experiment. The cells were maintained at 37° C. in a 5% CO2/95% air atmosphere. The cells were cultured in HAM F-12 medium supplemented with 10% FCS, 25 mM HEPES, 100 IU/ml penicillin, 100 µg/ml streptomycin, 500 μg/ml geneticin and 240 μg/ml hygromycin B. The cells were subcultured twice weekly with 0.25% trypsin and 1 mM EDTA. The subculture ratio was 1:5-1:20. The growth medium was changed every 2 or 3 days. All cell culture reagents were from Gibco. The day before the experiment the cells were plated into black-walled, clear bottom 384-well plates at a density of 10,000 cells/well.
(§3) The growth medium was removed and the cells were incubated with the test compounds and the FLIPR Calcium 6 Assay reagent (Molecular Devices, CA, USA) for 2 h at 37° C. in dark. The test compounds (concentrations in cells 100 pM-10 μM) were dissolved in Probenecid-Ringer consisting of 150 mM NaCl, 3 mM KCl, 1.2 mM MgCl2, 1 mM CaCl2, 5 mM glucose, 20 mM HEPES and 2.5 mM probenecid (pH 7.4 adjusted with 1.0 M NaOH). The osmolarity was adjusted to 322 milliosmoles with Osmostat® OM-6020 osmometer (DIC Kyoto Daiichi Kagagu Co. Ltd, Japan). […] All experiments were performed at 37° C. For agonism measurements the test compounds dissolved in Probenecid-Ringer were applied by FLIPR Tetra at 15 s time point. In order to determine antagonism, the cells were stimulated either with 100 nM adrenaline or noradrenaline and the test compounds were added to the cells 2 h before the experiment with the FLIPR Calcium 6 Assay reagent. […] Typically, there were four replicates at each concentration and six different dose levels. For example, if the number of plates from which results were obtained was three, 72 (4*6*3) wells were thus measured to construct dose-response relationship. The samples were excited at 485 nm and emission was detected at 525 nm with a 515 nm cut-off filter. The minimum fluorescence value subtracted from the maximum value for each well was used in the calculations. ScreenWorks version 4.0 software was used for analyzing the results. Fitting of the antagonist dose-response results was performed with the free Hill equation and the IC50 values were fitted with IDBS XE software using model 200: y=(A+(B/(1+((x/C)^D)))), where A is the curve maximum, B the curve minimum and C equals the EC50 value. D is slope factor (Hill). Kb was calculated with the Cheng-Prusoff equation Kb=A/((B/C)+1), where A is the IC50 of antagonist, B the concentration of agonist and C the EC50 of the agonist.

[2] = molecular target: T2, human alpha2A receptors (Homo sapiens, UniProt P08913); test: Determination of alpha2A antagonistic activity in vitro (FLIPR calcium assay, CHO cells); format: cell-based; conditions: for Kb: Kb calculated with the Cheng-Prusoff equation from IC50, adrenaline as agonist, CHO cells, human alpha2A, read-out: Alpha 2A Adrenaline Kb; for IC50: antagonism of adrenaline stimulation, CHO cells stably transfected with human alpha2A receptor and Gα16, intracellular calcium (FLIPR), read-out: Alpha 2A Adrenaline IC50
T2 construct: host or cells: CHO cells, cotransfected with pCEP-Gα16
T2 sequence (P08913 1-465): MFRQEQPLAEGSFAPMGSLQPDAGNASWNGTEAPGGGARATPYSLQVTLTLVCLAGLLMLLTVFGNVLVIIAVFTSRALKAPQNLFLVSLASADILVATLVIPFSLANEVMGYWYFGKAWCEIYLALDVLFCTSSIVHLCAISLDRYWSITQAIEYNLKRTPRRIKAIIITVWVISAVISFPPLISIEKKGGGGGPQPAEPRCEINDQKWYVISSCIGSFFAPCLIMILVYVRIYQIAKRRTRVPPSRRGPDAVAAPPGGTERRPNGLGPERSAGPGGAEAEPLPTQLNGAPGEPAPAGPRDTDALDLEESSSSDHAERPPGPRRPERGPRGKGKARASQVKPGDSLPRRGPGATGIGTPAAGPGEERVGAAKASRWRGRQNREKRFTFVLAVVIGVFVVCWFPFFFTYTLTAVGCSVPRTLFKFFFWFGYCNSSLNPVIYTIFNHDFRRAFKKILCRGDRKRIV
Description: as §1, §2, §3

Question: `Cc1c(N2C(=O)CC(C)(C)C2=O)c(N2CCN(C[C@H]3COc4ccccc4O3)CC2)nn1C` [Compound of example 1, (S)-1-(3-(4-((2,3-Dihydrobenzo[b][1,4]dioxin-2-yl)methyl)piperazin-1-yl)-1,5-dimethyl-1H-pyrazol-4-yl)-3,3-dimethylpyrrolidine-2,5-dione] was tested. Which Kb [1] did it give?
Answer: Its Kb is under 0.1 nM.

Question: What about the IC50 [1] of the same compound?
Answer: The IC50 was under 0.01 nM.

Question: With `Cc1c(N2C(=O)c3ccccc3C2=O)c(N2CCN(C[C@H]3COc4ccccc4O3)CC2)nn1C` [Compound of example 2, (S)-2-(3-(4-((2,3-Dihydrobenzo[b][1,4]dioxin-2-yl)methyl)piperazin-1-yl)-1,5-dimethyl-1H-pyrazol-4-yl)isoindoline-1,3-dione] as the compound, how does the Kb [1] read?
Answer: The Kb was under 0.1 nM.

Question: What about the IC50 [1] of the same compound?
Answer: Its IC50 is under 0.01 nM.

Question: And the Kb [2]?
Answer: Its Kb is under 0.004 nM.

Question: What about the IC50 [2] of the same compound?
Answer: Its IC50 is under 0.0001 µM.

Question: `Cc1nc(C#N)c(N2CCN(C[C@H]3COc4ccccc4O3)CC2)o1` [Compound of example 3, (S)-5-(4-((2,3-Dihydrobenzo[b][1,4]dioxin-2-yl)methyl)piperazin-1-yl)-2-methyloxazole-4-carbonitrile] was tested. Which Kb [1] did it give?
Answer: The Kb was 912 nM.

Question: What about the IC50 [1] of the same compound?
Answer: Its IC50 is 91.9 nM.

Question: What about the Kb [2] of the same compound?
Answer: The Kb was over 449 nM.

Question: And the IC50 [2]?
Answer: The IC50 was over 10 µM.

Question: Which results are given for `Cc1c(N2CCC2=O)c(N2CCN(C[C@H]3COc4ccccc4O3)CC2)nn1C` [Compound of example 4, (S)-1-(3-(4-((2,3-Dihydrobenzo[b][1,4]dioxin-2-yl)methyl)piperazin-1-yl)-1,5-dimethyl-1H-pyrazol-4-yl)azetidin-2-one]?
Answer: Kb [1]: 0.13 nM; IC50 [1]: 0.01 nM; Kb [2]: 217 nM

Question: What does the source list for `Cc1c(N2CCOC2=O)c(N2CCN(C[C@H]3COc4ccccc4O3)CC2)nn1C` [Compound of example 5, (S)-3-(3-(4-((2,3-Dihydrobenzo[b][1,4]dioxin-2-yl)methyl)piperazin-1-yl)-1,5-dimethyl-1H-pyrazol-4-yl)oxazolidin-2-one]?
Answer: Kb [1]: 1 nM; IC50 [1]: 0.1 nM; Kb [2]: 206 nM; IC50 [2]: 4.59 µM

Question: Which Kb [1] does the source give for `Cc1c(N2CC(C)(C)NC2=O)c(N2CCN(C[C@H]3COc4ccccc4O3)CC2)nn1C` [Compound of example 6, (S)-1-(3-(4-((2,3-Dihydrobenzo[b][1,4]dioxin-2-yl)methyl)piperazin-1-yl)-1,5-dimethyl-1H-pyrazol-4-yl)-4,4-dimethylimidazolidin-2-one] here?
Answer: Its Kb is under 0.1 nM.

Question: What about the IC50 [1] of the same compound?
Answer: Its IC50 is under 0.01 nM.

Question: What does the source list for `Cc1c(N2CC(C)(C)N(C)C2=O)c(N2CCN(C[C@H]3COc4ccccc4O3)CC2)nn1C` [Compound of example 7, (S)-1-(3-(4-((2,3-Dihydrobenzo[b][1,4]dioxin-2-yl)methyl)piperazin-1-yl)-1,5-dimethyl-1H-pyrazol-4-yl)-3,4,4-trimethylimidazolidin-2-one]?
Answer: Kb [1]: < 0.1 nM; IC50 [1]: < 0.01 nM

Question: For `COCc1scnc1N1CCN(C[C@H]2COc3ccccc3O2)CC1` [Compound of example 8, (S)-4-(4-((2,3-Dihydrobenzo[b][1,4]dioxin-2-yl)methyl)piperazin-1-yl)-5-(methoxymethyl)thiazole], which Kb [1] is on record?
Answer: The Kb was under 0.1 nM.

Question: And the IC50 [1]?
Answer: Its IC50 is under 0.01 nM.

Question: What about the Kb [2] of the same compound?
Answer: The Kb was 88 nM.

Question: What about the IC50 [2] of the same compound?
Answer: The IC50 was 1.97 µM.

Question: Which Kb [1] does the source give for `Cc1c(N2CCNC2=O)c(N2CCN(C[C@H]3COc4ccccc4O3)CC2)nn1C` [Compound of example 9, (S)-1-(3-(4-((2,3-Dihydrobenzo[b][1,4]dioxin-2-yl)methyl)piperazin-1-yl)-1,5-dimethyl-1H-pyrazol-4-yl)imidazolidin-2-one] here?
Answer: The Kb was 0.55 nM.

Question: And the IC50 [1]?
Answer: Its IC50 is 0.06 nM.

Question: And the Kb [2]?
Answer: The Kb was over 449 nM.

Question: And the IC50 [2]?
Answer: The IC50 was over 10 µM.

Question: With `c1ccc(-n2nccc2N2CCN(C[C@H]3COc4ccccc4O3)CC2)nc1` [Compound of example 10, (S)-1-((2,3-Dihydrobenzo[b][1,4]dioxin-2-yl)methyl)-4-(1-(pyridin-2-yl)-1H-pyrazol-5-yl)piperazine] as the compound, how does the Kb [1] read?
Answer: Its Kb is 1.14 nM.

Question: What about the IC50 [1] of the same compound?
Answer: The IC50 was 0.113 nM.

Question: And the Kb [2]?
Answer: The Kb was 350 nM.

Question: And the IC50 [2]?
Answer: The IC50 was 7.81 µM.

Question: For `COCc1c(N2CCN(C[C@H]3COc4ccccc4O3)CC2)nn(C)c1C` [Compound of example 11, (S)-1-((2,3-Dihydrobenzo[b][1,4]dioxin-2-yl)methyl)-4-(4-(methoxymethyl)-1,5-dimethyl-1H-pyrazol-3-yl)piperazine], which Kb [1] is on record?
Answer: The Kb was 1.62 nM.

Question: What about the IC50 [1] of the same compound?
Answer: Its IC50 is 0.165 nM.

Question: And the Kb [2]?
Answer: Its Kb is 306 nM.

Question: And the IC50 [2]?
Answer: Its IC50 is 6.81 µM.

Question: Which results are given for `CCOC(=O)c1c(N2CCN(C[C@H]3COc4ccccc4O3)CC2)nn(C)c1C` [Compound of example 12, (S)-Ethyl 3-(4-((2,3-dihydrobenzo[b][1,4]dioxin-2-yl)methyl)piperazin-1-yl)-1,5-dimethyl-1H-pyrazole-4-carboxylate]?
Answer: Kb [1]: 2.13 nM; IC50 [1]: 0.21 nM; Kb [2]: 120 nM; IC50 [2]: 2.68 µM

Question: What does the source list for `Cc1c(C(C)(C)O)c(N2CCN(C[C@H]3COc4ccccc4O3)CC2)nn1C` [Compound of example 13, (S)-2-(3-(4-((2,3-Dihydrobenzo[b][1,4]dioxin-2-yl)methyl)piperazin-1-yl)-1,5-dimethyl-1H-pyrazol-4-yl)propan-2-ol]?
Answer: Kb [1]: 2.93 nM; IC50 [1]: 0.3 nM; Kb [2]: 43 nM; IC50 [2]: 0.96 µM

Question: With `Cc1c(N2CCCC2=O)c(N2CCN(C[C@H]3COc4ccccc4O3)CC2)nn1C` [Compound of example 14, (S)-1-(3-(4-((2,3-Dihydrobenzo[b][1,4]dioxin-2-yl)methyl)piperazin-1-yl)-1,5-dimethyl-1H-pyrazol-4-yl)pyrrolidin-2-one] as the compound, how does the Kb [1] read?
Answer: The Kb was 0.29 nM.

Question: And the IC50 [1]?
Answer: The IC50 was 0.03 nM.

Question: What about the Kb [2] of the same compound?
Answer: Its Kb is 382 nM.

Question: And the IC50 [2]?
Answer: The IC50 was 8.52 µM.

Question: What does the source list for `Cc1c(N2CCN(C)C2=O)c(N2CCN(C[C@H]3COc4ccccc4O3)CC2)nn1C` [Compound of example 15, (S)-1-(3-(4-((2,3-Dihydrobenzo[b][1,4]dioxin-2-yl)methyl)piperazin-1-yl)-1,5-dimethyl-1H-pyrazol-4-yl)-3-methylimidazolidin-2-one]?
Answer: Kb [1]: 1.64 nM; IC50 [1]: 0.17 nM; Kb [2]: > 449 nM; IC50 [2]: > 10 µM

Question: `Cc1nc(N2CCN(C[C@H]3COc4ccccc4O3)CC2)c(N2C(=O)CC(C)(C)C2=O)s1` [Compound of example 32, (S)-1-(4-(4-((2,3-Dihydrobenzo[b][1,4]dioxin-2-yl)methyl)piperazin-1-yl)-2-methylthiazol-5-yl)-3,3-dimethylpyrrolidine-2,5-dione hydrochloride] was tested. Which Kb [1] did it give?
Answer: The Kb was under 0.1 nM.

Question: And the IC50 [1]?
Answer: Its IC50 is under 0.01 nM.

Question: How did the Kb [2] turn out when “(S)-4-(4-((2,3-Dihydrobenzo[b][1,4]dioxin-2-yl)methyl)piperazin-1-yl)-N-(pyridin-4-yl)-1,2,5-thiadiazol-3-amine dihydrochloride [Compound of example 35]” was run?
Answer: The Kb was 275 nM.

Question: What about the IC50 [2] of the same compound?
Answer: Its IC50 is 6.13 µM.
